Experimental data from the supplement of paper PMC10307832.

Legend:
Assay in all cases: relative viability (nuclei count vs DMSO), 5 days (fraction); higher = more cells survive
[1] = compound: CC1=C(N=C(N=C1N)[C@H](CC(=O)N)NC[C@@H](C(=O)N)N)C(=O)N[C@@H]([C@H](C2=CN=CN2)OC3C(C(C(C(O3)CO)O)O)OC4C(C(C(C(O4)CO)O)OC(=O)N)O)C(=O)N[C@H](C)[C@H]([C@H](C)C(=O)N[C@@H]([C@@H](C)O)C(=O)NCCC5=NC(=CS5)C6=NC(=CS6)C(=O)NCCC[S+](C)C)O [Bleomycin] + N=C(N)NC(=N)NCCc1ccccc1 [Phenformin] (partner 250 µM); conditions: main component drawn
How it was run: (§1)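 Dosing by pin tool came one day after lung cancer cell lines were seeded in 1536-well plates, using either one drug or a fixed anchor-drug dose plus five library-drug doses (not always all listed) in √10 steps. After 5 days, nuclei were counted on 4× images. Relative viability is treated-well nuclei count divided by vehicle-well nuclei count, and values are medians of duplicate plates.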

[2] = compound: COc1cc([C@@H]2c3cc4c(cc3[C@@H](O[C@@H]3O[C@@H]5CO[C@@H](C)O[C@H]5[C@H](O)[C@H]3O)[C@H]3COC(=O)[C@H]23)OCO4)cc(OC)c1O [Etoposide] + CC(=O)c1c(C)c2cnc(Nc3ccc(N4CCNCC4)cn3)nc2n(C2CCCC2)c1=O [Palbociclib] (partner 0.5 µM)
How it was run: as §1

[3] = compound: COc1cc([C@@H]2c3cc4c(cc3[C@@H](O[C@@H]3O[C@@H]5CO[C@@H](C)O[C@H]5[C@H](O)[C@H]3O)[C@H]3COC(=O)[C@H]23)OCO4)cc(OC)c1O [Etoposide] + CCNC(=O)c1noc(-c2cc(C(C)C)c(O)cc2O)c1-c1ccc(CN2CCOCC2)cc1 [Luminespib] (partner 0.01 µM)
How it was run: as §1

[4] = compound: COc1cc([C@@H]2c3cc4c(cc3[C@@H](O[C@@H]3O[C@@H]5CO[C@@H](C)O[C@H]5[C@H](O)[C@H]3O)[C@H]3COC(=O)[C@H]23)OCO4)cc(OC)c1O [Etoposide] + COc1cccc2cc(-c3nc([C@H]4CC[C@H](C(=O)O)CC4)n4ncnc(N)c34)[nH]c12 [OSI-027] (partner 0.5 µM)
How it was run: as §1

Cell Line UMC-11 has a relative viability ([1]; first compound 0.01 µM) of 0.311, a relative viability ([1]; first compound 0.03162 µM) of 0.335 and a relative viability ([1]; first compound 0.1 µM) of 0.29. For the same cell line, the relative viability ([1]; first compound 0.3162 µM) was 0.283, the relative viability ([1]; first compound 1 µM) was 0.233 and the relative viability ([2]; first compound 0.01 µM) was 0.327. For the same cell line, the relative viability ([2]; first compound 0.03162 µM) was 0.308, the relative viability ([2]; first compound 0.1 µM) was 0.312 and the relative viability ([2]; first compound 0.3162 µM) was 0.313. For the same cell line, the relative viability ([2]; first compound 1 µM) was 0.298, the relative viability ([3]; first compound 0.01 µM) was 1 and the relative viability ([3]; first compound 0.03162 µM) was 1.09. For the same cell line, the relative viability ([3]; first compound 0.1 µM) was 0.783, the relative viability ([3]; first compound 0.3162 µM) was 0.566 and the relative viability ([3]; first compound 1 µM) was 0.279. For the same cell line, the relative viability ([4]; first compound 0.01 µM) was 0.443, the relative viability ([4]; first compound 0.03162 µM) was 0.544 and the relative viability ([4]; first compound 0.1 µM) was 0.299. For the same cell line, the relative viability ([4]; first compound 0.3162 µM) was 0.431 and the relative viability ([4]; first compound 1 µM) was 0.3.
